In PubChem BioAssay AID2060603 (Molecular Pharmacology Branch, DTP, NCI, 2025):
“And” between values parts separate entries of the source, which are not always exact repeats. Equal entries are not always repeated.

Tested on: 422866-222-R5-J1-PDC spheroid viability
Assay: Anticancer human tumor 422866-222-R5-J1-PDC patient-derived pancreatic adenocarcinoma cell line growth inhibition [CLK]
Settings: spheroids with HUVEC and MSC; for viability, T/C: stronger effect = lower value
Summary of the method: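 Patient-derived tumor cells grown as complex spheroids with HUVEC endothelial cells and mesenchymal stem cells, treated with drug combinations. Concentrations descend in half-log steps from near clinical Cmax, or from 10 microM if Cmax unknown.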

[1] = curve of first compound, second compound 0.0316 µM
[2] = curve of first compound, second compound 0.1 µM
[3] = curve of first compound, second compound 0.316 µM
[4] = curve of first compound, second compound 1 µM
[5] = curve of first compound, second compound 3.16 µM
[6] = curve of first compound, second compound 10 µM
[7] = second compound 0.0316 µM, first compound 0.0316 µM
[8] = second compound 0.0316 µM, first compound 0.1 µM
[9] = second compound 0.0316 µM, first compound 0.316 µM
[10] = second compound 0.0316 µM, first compound 1 µM
[11] = second compound 0.0316 µM, first compound 3.16 µM
[12] = second compound 0.0316 µM, first compound 10 µM
[13] = second compound 0.1 µM, first compound 0.0316 µM
[14] = second compound 0.1 µM, first compound 0.1 µM
[15] = second compound 0.1 µM, first compound 0.316 µM
[16] = second compound 0.1 µM, first compound 1 µM
[17] = second compound 0.1 µM, first compound 3.16 µM
[18] = second compound 0.1 µM, first compound 10 µM
[19] = second compound 0.316 µM, first compound 0.0316 µM
[20] = second compound 0.316 µM, first compound 0.1 µM
[21] = second compound 0.316 µM, first compound 0.316 µM
[22] = second compound 0.316 µM, first compound 1 µM
[23] = second compound 0.316 µM, first compound 3.16 µM
[24] = second compound 0.316 µM, first compound 10 µM
[25] = second compound 1 µM, first compound 0.0316 µM
[26] = second compound 1 µM, first compound 0.1 µM
[27] = second compound 1 µM, first compound 0.316 µM
[28] = second compound 1 µM, first compound 1 µM
[29] = second compound 1 µM, first compound 3.16 µM
[30] = second compound 1 µM, first compound 10 µM
[31] = second compound 3.16 µM, first compound 0.0316 µM
[32] = second compound 3.16 µM, first compound 0.1 µM
[33] = second compound 3.16 µM, first compound 0.316 µM
[34] = second compound 3.16 µM, first compound 1 µM
[35] = second compound 3.16 µM, first compound 3.16 µM
[36] = second compound 3.16 µM, first compound 10 µM
[37] = second compound 10 µM, first compound 0.0316 µM
[38] = second compound 10 µM, first compound 0.1 µM
[39] = second compound 10 µM, first compound 0.316 µM
[40] = second compound 10 µM, first compound 1 µM
[41] = second compound 10 µM, first compound 3.16 µM
[42] = second compound 10 µM, first compound 10 µM
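Note: spheroids exposed to agents for seven days before readout.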

Work on `CC(CO)NC(=O)c1cc(-c2ccc(Cl)cc2)nn(-c2cnn(C)c2)c1=O` (stereo not given) + CN1CCN(c2cc(C(=O)Nc3cc4cc(-c5cnn(C)c5)ccc4cn3)ccn2)CC1 yielded an IC50 [1] of over 10000 nM, an IC50 [2] of over 10000 nM and an IC50 [3] of over 10000 nM. For the same molecule, the IC50 [4] was under 31.6 nM, the IC50 [5] was under 31.6 nM and the IC50 [6] was under 31.6 nM. It also gave a viability, T/C [7] of 115%, a viability, T/C [8] of 104% and a viability, T/C [9] of 106%. The viability, T/C [10] was 135%, the viability, T/C [11] was 106% and the viability, T/C [12] was 75.7%. The viability, T/C [13] was 115%, the viability, T/C [14] was 118% and the viability, T/C [15] was 104%. The viability, T/C [16] was 116%, the viability, T/C [17] was 104% and the viability, T/C [18] was 82.6%. The viability, T/C [19] was 107%, the viability, T/C [20] was 93.5% and the viability, T/C [21] was 86.9%. It also gave a viability, T/C [22] of 88.7%, a viability, T/C [23] of 80.8% and a viability, T/C [24] of 68.8%. The viability, T/C [25] was 30.9%, the viability, T/C [26] was 27.6% and the viability, T/C [27] was 31.6%. It also gave a viability, T/C [28] of 31.1%, a viability, T/C [29] of 31.3% and a viability, T/C [30] of 32%. It also gave a viability, T/C [31] of 13.1%, a viability, T/C [32] of 13.4% and a viability, T/C [33] of 12.1%. The viability, T/C [34] was 12%, the viability, T/C [35] was 11.5% and the viability, T/C [36] was 13.6%. For the same molecule, the viability, T/C [37] was 2.51%, the viability, T/C [38] was 3.09% and the viability, T/C [39] was 1.44%. The viability, T/C [40] was 2.25%, the viability, T/C [41] was 3.26% and the viability, T/C [42] was 1.54%.
In the case of `C=CC(=O)Nc1cc(Nc2nccc(-c3cn(C)c4ccccc34)n2)c(OC)cc1N(C)CCN(C)C`, the viability, T/C (compound 0.000949 µM) is reported as 117% and 87.2%, the viability, T/C (compound 0.003 µM) is reported as 106% and 102% and the viability, T/C (compound 0.00949 µM) is reported as 83% and 85%. For the same molecule, the viability, T/C (compound 0.03 µM) was 93.5% and 83.8%, the viability, T/C (compound 0.0949 µM) was 82.8% and 69% and the viability, T/C (compound 0.3 µM) was 74.9% and 72.9%. The IC50 (curve of compound) was over 300 nM.
Molecule `COc1c(OCCCN2CCOCC2)ccc2c3n(c(=NC(=O)c4cnc(N)nc4)nc12)CCN3` + CNC(=O)c1ccc(Nc2nc(OC3CCCC3)c3c(-c4ccc5nc(C)oc5c4)c[nH]c3n2)c(OC)c1 has an IC50 [1] of 11.9 nM, an IC50 [2] of 16.8 nM and an IC50 [3] of 11.8 nM. The IC50 [4] was under 3.16 nM, the IC50 [5] was 8.5 nM and the IC50 [6] was under 3.16 nM. It also gave a viability, T/C (second compound 0.0316 µM, first compound 0.00316 µM) of 83.3%, a viability, T/C (second compound 0.0316 µM, first compound 0.01 µM) of 51.5% and a viability, T/C [7] of 39.9%. For the same molecule, the viability, T/C [8] was 26.8%, the viability, T/C [9] was 28.4% and the viability, T/C [10] was 30.3%. It also gave a viability, T/C (second compound 0.1 µM, first compound 0.00316 µM) of 72.2%, a viability, T/C (second compound 0.1 µM, first compound 0.01 µM) of 60% and a viability, T/C [13] of 37.7%. The viability, T/C [14] was 32.1%, the viability, T/C [15] was 26.7% and the viability, T/C [16] was 33.4%. The viability, T/C (second compound 0.316 µM, first compound 0.00316 µM) was 62.8%, the viability, T/C (second compound 0.316 µM, first compound 0.01 µM) was 53.6% and the viability, T/C [19] was 29.5%. The viability, T/C [20] was 23.9%, the viability, T/C [21] was 25.7% and the viability, T/C [22] was 32.9%. The viability, T/C (second compound 1 µM, first compound 0.00316 µM) was 50.1%, the viability, T/C (second compound 1 µM, first compound 0.01 µM) was 47.1% and the viability, T/C [25] was 33.5%. It also gave a viability, T/C [26] of 27.6%, a viability, T/C [27] of 25.9% and a viability, T/C [28] of 36.8%. For the same molecule, the viability, T/C (second compound 3.16 µM, first compound 0.00316 µM) was 57.6%, the viability, T/C (second compound 3.16 µM, first compound 0.01 µM) was 48.7% and the viability, T/C [31] was 31.9%. It also gave a viability, T/C [32] of 25.4%, a viability, T/C [33] of 28.6% and a viability, T/C [34] of 36.1%. It also gave a viability, T/C (second compound 10 µM, first compound 0.00316 µM) of 47.2%, a viability, T/C (second compound 10 µM, first compound 0.01 µM) of 43.3% and a viability, T/C [37] of 35.5%. It also gave a viability, T/C [38] of 28%, a viability, T/C [39] of 33.5% and a viability, T/C [40] of 36.1%.
Molecule `COC1C=CCC(C)C(C)S(=O)(=O)NC(=O)c2ccc3c(c2)N(CC2CCC21)CC1(CCCc2cc(Cl)ccc21)CO3` (stereo not given) + CN1CCN(c2cc(C(=O)Nc3cc4cc(-c5cnn(C)c5)ccc4cn3)ccn2)CC1 has an IC50 [1] of over 10000 nM, an IC50 [2] of over 10000 nM and an IC50 [3] of over 10000 nM. It also gave an IC50 [4] of under 31.6 nM, an IC50 [5] of under 31.6 nM and an IC50 [6] of under 31.6 nM. It also gave a viability, T/C [7] of 102%, a viability, T/C [8] of 102% and a viability, T/C [9] of 113%. For the same molecule, the viability, T/C [10] was 98.1%, the viability, T/C [11] was 97% and the viability, T/C [12] was 76.8%. It also gave a viability, T/C [13] of 131%, a viability, T/C [14] of 104% and a viability, T/C [15] of 105%. The viability, T/C [16] was 107%, the viability, T/C [17] was 114% and the viability, T/C [18] was 94.7%. The viability, T/C [19] was 103%, the viability, T/C [20] was 92.8% and the viability, T/C [21] was 104%. It also gave a viability, T/C [22] of 99%, a viability, T/C [23] of 113% and a viability, T/C [24] of 105%. For the same molecule, the viability, T/C [25] was 29.4%, the viability, T/C [26] was 28.8% and the viability, T/C [27] was 38.5%. It also gave a viability, T/C [28] of 28.9%, a viability, T/C [29] of 38.7% and a viability, T/C [30] of 39.2%. The viability, T/C [31] was 8.76%, the viability, T/C [32] was 9.13% and the viability, T/C [33] was 9.74%. For the same molecule, the viability, T/C [34] was 7.9%, the viability, T/C [35] was 9.36% and the viability, T/C [36] was 5.17%. For the same molecule, the viability, T/C [37] was 2.4%, the viability, T/C [38] was 1.91% and the viability, T/C [39] was 1.69%. It also gave a viability, T/C [40] of 1.81%, a viability, T/C [41] of 2.33% and a viability, T/C [42] of 3.52%.
In the case of `CC1COCCN1c1cc(C2(S(C)(=N)=O)CC2)nc(-c2ccnc3[nH]ccc23)n1` (stereo not given) + CNC(=O)c1ccc(Nc2nc(OC3CCCC3)c3c(-c4ccc5nc(C)oc5c4)c[nH]c3n2)c(OC)c1, the IC50 [1] is reported as 7150 nM, the IC50 [2] is reported as over 10000 nM and the IC50 [3] is reported as 2560 nM. For the same molecule, the IC50 [4] was 1560 nM, the IC50 [5] was 973 nM and the IC50 [6] was 630 nM. The viability, T/C [7] was 108%, the viability, T/C [8] was 137% and the viability, T/C [9] was 104%. It also gave a viability, T/C [10] of 102%, a viability, T/C [11] of 59.6% and a viability, T/C [12] of 46.2%. For the same molecule, the viability, T/C [13] was 106%, the viability, T/C [14] was 98.4% and the viability, T/C [15] was 88%. For the same molecule, the viability, T/C [16] was 84.6%, the viability, T/C [17] was 56.9% and the viability, T/C [18] was 60.6%. The viability, T/C [19] was 79.8%, the viability, T/C [20] was 71.6% and the viability, T/C [21] was 69.3%. The viability, T/C [22] was 58%, the viability, T/C [23] was 43.5% and the viability, T/C [24] was 50.5%. The viability, T/C [25] was 61.4%, the viability, T/C [26] was 66.7% and the viability, T/C [27] was 59.3%. For the same molecule, the viability, T/C [28] was 52.1%, the viability, T/C [29] was 43.6% and the viability, T/C [30] was 52.5%. For the same molecule, the viability, T/C [31] was 65.3%, the viability, T/C [32] was 65.1% and the viability, T/C [33] was 58.3%. It also gave a viability, T/C [34] of 50%, a viability, T/C [35] of 44.8% and a viability, T/C [36] of 53.8%. The viability, T/C [37] was 64.5%, the viability, T/C [38] was 69.2% and the viability, T/C [39] was 58.8%. For the same molecule, the viability, T/C [40] was 42.2%, the viability, T/C [41] was 39.8% and the viability, T/C [42] was 50.4%.
